Laboratory results: article PMC9458250, “6-Formyl Umbelliferone, a Furanocoumarin from Angelica decursiva L., Inhibits Key Diabetes-Related Enzymes and Advanced Glycation End-Product Formation” (Molecules, 2022)

Key:
[1] = target: T1, PTP1B (human recombinant) (Homo sapiens, UniProt P18031); experiment: PTP1B inhibition assay using pNPP; assay type: biochemical
T1 construct: purchased Biomol International LP (Plymouth Meeting, PA, USA)
T1 sequence (P18031 1-435): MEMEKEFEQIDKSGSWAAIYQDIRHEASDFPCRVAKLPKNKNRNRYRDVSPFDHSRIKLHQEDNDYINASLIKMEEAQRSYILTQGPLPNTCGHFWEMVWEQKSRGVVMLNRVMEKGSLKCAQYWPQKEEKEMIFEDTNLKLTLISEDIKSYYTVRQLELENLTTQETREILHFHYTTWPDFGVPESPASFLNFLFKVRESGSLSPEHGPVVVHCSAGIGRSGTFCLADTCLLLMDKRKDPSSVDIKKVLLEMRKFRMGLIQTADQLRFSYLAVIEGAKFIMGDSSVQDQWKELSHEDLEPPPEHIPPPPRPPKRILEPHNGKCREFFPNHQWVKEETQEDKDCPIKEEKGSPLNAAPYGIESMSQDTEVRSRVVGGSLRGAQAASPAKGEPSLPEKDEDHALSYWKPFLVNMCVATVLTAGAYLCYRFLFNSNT
Protocol: The PTP1B inhibitory activity was evaluated using pNPP according to the modified procedure reported by Ali et al..
(§1) To determine the inhibition mechanism, enzymatic inhibition at various concentrations of 6-FU was evaluated by monitoring the effects of different concentrations of substrates via Dixon plots. Dixon plots for PTP1B inhibition by 6-FU were obtained in the presence of 0.5, 1, and 2 mM pNPP. The test concentrations of 6-FU in the PTP1B kinetic analysis were 0, 1.25, 2.5, 5.0, and 10 µM. Dixon plots for α-glucosidase inhibition by 6-FU were performed in the presence of 0.625, 1.25, and 2.5 mM pNPG. The test concentrations of 6-FU used in the α-glucosidase kinetic analysis were 0, 31.25, 62.5, 125, and 250 µM. Both enzymatic procedures followed the PTP1B and α-glucosidase assay methods. Dixon plots for HRAR inhibition by 6-FU were performed in the presence of 5, 10, and 20 mM of DL-glyceraldehyde as the substrate. The test concentrations of 6-FU used in the HRAR kinetic analysis were 0, 0.08, 0.4, 2, and 10 µM. The Dixon plot is a graphical method [1/enzyme velocity (1/V) against inhibitor concentration (I)] for determining the type of enzyme inhibition and was used to determine the dissociation or inhibition constant (Ki) for the enzyme–inhibitor complex. Thus, the type of enzyme inhibition was determined by interpreting the Lineweaver–Burk plots, and the inhibition constants (Ki) were determined by interpreting the Dixon plots.

Yeast α-glucosidase = Yeast α-glucosidase (Saccharomyces cerevisiae, UniProt P53341); experiment: α-glucosidase inhibitory assay using pNPG; assay type: biochemical; conditions: Dixon and Lineweaver-Burk plots
Protocol: as §1

[2] = target: T2, human recombinant aldose reductase (HRAR) (Homo sapiens, UniProt P15121); experiment: HRAR inhibition assay (NADPH absorption decrease, DL-glyceraldehyde substrate); assay type: biochemical
T2 construct: purchased Wako Chemicals (Osaka, Japan)
Protocol: HRAR inhibition was examined as described by Ali et al.. Briefly, AR activity was determined by measuring the decrease in NADPH absorption at 340 nm over a period of 1 min on an Ultrospec®2100pro UV/Visible spectrophotometer (Cytiva, Buckinghamshire, UK). SWIFT II Applications software (Amersham Biosciences, NJ, USA) was used for all data analyses. […] The inhibition percentage (%) was calculated as described in the RLAR assay, except that the DA sample per min value represented the reduction in absorbance for 1 min with the test samples and substrate. The ability of each sample to inhibit HRAR was expressed as an IC50 value (µM), which was calculated from the log-dose inhibition curve.
as §1

[3] = tested on: advanced glycation end-product (AGE) formation; experiment: Inhibition of fluorescent AGE formation in HSA-glucose-fructose system; design: species or system human; conditions: for percentage of inhibition of AGE formation: week 4 of incubation
Protocol: The formation of glycated HSA-fructose-glucose was examined according to a previously published method. To prepare the AGE reaction solution, 20 mg/mL HSA in 50 mM sodium phosphate buffer (pH 7.4) was added to 0.2M fructose, 0.2 M glucose, and 0.02% sodium azide to prevent bacterial growth. The reaction mixture (3.8 mL) was then mixed with 200 μL of various concentrations of 6-FU and aminoguanidine hydrochloride dissolved in 10% DMSO. The control was prepared using HSA and sugars, and a blank was prepared using only HSA in the same buffer. The reaction mixtures were incubated at 37 °C for 4 weeks. Aliquots of the reaction mixtures were then assayed to determine the presence of AGEs.
The ability of the isolates to inhibit AGE formation was evaluated according to a previously published method with slight modifications. To prepare the AGE reaction solution, 20 mg/mL HSA in 50mM sodium phosphate buffer (pH 7.4) was added to 0.2M fructose and 0.2 M glucose, along with 0.02% sodium azide to prevent bacterial growth. The reaction mixture (950 μL) was then combined with various concentrations of 6-FU (50 μL, test concentration ranging from 0.8 to 100 μM) dissolved in 10% DMSO. After incubating the mixture at 37 °C, AGE formation in the aliquots was determined at weekly intervals using a spectrofluorometric detector (FLx800 microplate fluorescence reader, Bio-Tek Instrument, Inc., Winooski, VT, USA) with excitation and emission wavelengths of 350 nm and 450 nm, respectively. The nucleophilic hydrazine compound aminoguanidine was used as a reference in the AGE assay.

C2C12 cells = experiment: C2C12 cell viability (MTT assay); assay type: cell-based; conditions: 24 h, up to 40 μM (tested up to 80 μM)
Protocol: The C2C12 cell line (skeletal muscle cells) was purchased from the American Type Culture Collection (Manassas, VA, USA). The C2C12 cells were cultured at 37 °C in DMEM supplemented with 10% FBS and P/S (Hyclone, Mordialloc, VIC, Australia) in a humidified atmosphere with 5% CO2. The tetrazolium dye colorimetric test (MTT) was used to determine cell viability. First, the C2C12 cells were cultured in 96-well plates (2 × 10^5 cells/well) for 24 h. After they reached 90% confluence, they were treated with various concentrations of 6-FU. After 24 h of incubation, the MTT reagent was added to each well, and the plate was incubated for 2 h at 37 °C. The media were removed, and the wells were washed twice with PBS (pH 7.4). To measure the proportion of surviving cells, the medium was replaced with 100 μL DMSO (100%). The resulting absorbance values were measured at 570 nm with a microplate reader (Molecular Devices, Sunnyvale, CA, USA).

[4] = tested on: insulin-resistant C2C12 skeletal muscle cells; experiment: 2-NBDG glucose uptake assay; assay type: cell-based
Protocol: The C2C12 cells were cultured in 96-well plates (2 × 10^5 cells/well) with DMEM containing 10% FBS and 1% P/S at 37 °C and exposed to a 5% CO2 atmosphere. When the cells reached confluence, they were subjected to differentiation in DMEM supplemented with 2% horse serum for 5 days. Then the cells were starved in low-glucose serum-free DMEM for 24 h. Subsequently, the 2-NBDG assay was performed to evaluate glucose uptake. The cells were treated with various concentrations of 6-FU and insulin (100 nM) for 12 h, followed by 20 μM 2-NBDG for 24 h. To stop the response, the cells were washed three times with ice-cold PBS, and then the 2-NBDG fluorescence intensity was measured on a microplate reader (FL × 800, Bio-Tek Instruments Inc., Winooski, VT, USA) at 490 nm (excitation) and 535 nm (emission). Five replicate wells were established, and each experiment was replicated three times. Rosiglitazone was used as the positive control.

[5] = tested on: PTP1B expression in insulin-resistant C2C12 cells; experiment: PTP1B expression by Western blot; assay type: cell-based; conditions: 40 μM, 24 h
Protocol: Insulin-resistant C2C12 cells (2 × 10^5 cells/well) in 6-well plates were treated with different concentrations of 6-FU for 24 h. After stimulation with 100 nM insulin for 30 min at 37 °C, the cells were washed three times with ice-cold PBS, collected, and lysed with sample buffer (50 mM HEPES, pH 7.5, 150 mM NaCl, 2.5 mM EDTA, 0.5% NP40, 1 mM PMSF, 1 mM DTT, 0.2% aprotinin, 0.5% leupeptin, 20 mM NaF, and 1 mM Na3VO4) on ice. After incubation for 30 min, the insoluble materials were removed by centrifugation at 25,000× g for 20 min. The protein concentrations were determined using a modified Bradford protein assay kit. Total protein (50 μg) was subjected to dodecyl sulfate–polyacrylamide gel electrophoresis and transferred to a polyvinylidene difluoride membrane. The membranes were blocked in blocking buffer (5% skim milk in Tris-buffered saline containing 0.1% Tween 20 (TBST)) and incubated with primary antibodies overnight at 4 °C, followed by incubation with appropriate secondary antibodies for 4 h at room temperature. The membranes were washed three times with TBST for 40 min. The bands were detected using Super Signal West Pico chemiluminescence substrate (Pierce, Rockford, IL, USA) according to the manufacturer’s instructions. The immunoreactive protein bands were detected using an Odyssey scanning system (LI-COR, Lincoln, NE, USA). […]

[6] = Dixon and Lineweaver-Burk plots

Yeast α-glucosidase, sequence (P53341 whole entry): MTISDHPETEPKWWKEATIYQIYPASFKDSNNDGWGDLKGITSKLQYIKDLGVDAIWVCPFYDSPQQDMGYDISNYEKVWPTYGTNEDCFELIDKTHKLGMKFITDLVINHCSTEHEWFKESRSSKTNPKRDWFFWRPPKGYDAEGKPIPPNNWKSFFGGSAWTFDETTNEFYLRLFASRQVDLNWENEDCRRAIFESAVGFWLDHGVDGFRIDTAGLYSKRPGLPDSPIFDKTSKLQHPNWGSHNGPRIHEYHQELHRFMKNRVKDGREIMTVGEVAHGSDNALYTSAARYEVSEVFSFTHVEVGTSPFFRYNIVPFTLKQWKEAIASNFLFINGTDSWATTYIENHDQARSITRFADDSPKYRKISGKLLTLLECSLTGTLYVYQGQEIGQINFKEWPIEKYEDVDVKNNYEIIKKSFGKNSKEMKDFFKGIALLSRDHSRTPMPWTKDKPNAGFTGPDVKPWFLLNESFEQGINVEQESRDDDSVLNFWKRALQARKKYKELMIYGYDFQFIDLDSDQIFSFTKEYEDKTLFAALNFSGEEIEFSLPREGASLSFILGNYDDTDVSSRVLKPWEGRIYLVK

SMILES: O=Cc1cc2ccc(=O)oc2cc1O [6-FU, 6-formyl umbelliferone]
- IC50 [1]: 1130 ± 120 nM
- Ki [1]: 1720 nM
- Inhibition type PTP1B [1, 6]: Competitive
- Inhibition type α-Glucosidase (Yeast α-glucosidase): Mixed
- IC50 [2]: 5110 ± 210 nM
- Ki [2]: 4870 nM
- Inhibition type HRAR [2, 6]: Mixed
- IC50 ([3]; AGE formation, mean ± SEM of triplicates): 2150 ± 130 nM
- percentage of inhibition of AGE formation ([3]; 0.8 μM): 24.04%
- percentage of inhibition of AGE formation ([3]; 4.0 μM): 55.73%
- percentage of inhibition of AGE formation ([3]; 20 μM): 64.18%
- percentage of inhibition of AGE formation ([3]; 100 μM): 82.60%
- cytotoxicity (cell viability, MTT) (C2C12 cells): not cytotoxic
- insulin-stimulated 2-NBDG uptake ([4]; 10, 20, and 40 μM, compared with the control): significantly enhanced
- PTP1B expression level [5]: decreased

SMILES: N=C(N)NN [Aminoguanidine, aminoguanidine, reference compound]
- percentage of inhibition of AGE formation ([3]; 100 μM): 57.23%

SMILES: CN(CCOc1ccc(CC2SC(=O)NC2=O)cc1)c1ccccn1 (stereo not drawn) [rosiglitazone, reference compound]
- insulin-stimulated glucose uptake ([4]; 5 μM): significantly increased

SMILES: O=C(O)Cn1c(=O)n(Cc2ccc(Br)cc2F)c(=O)c2ccc(Cl)cc21 [Zenarestat, zenarestat, reference compound]
- IC50 [2]: 630 ± 10 nM
